Where two headings read alike, the source gives them in different places.
Assays:
NF-kB = NF-kB reporter assay in Jurkat cells stimulated with aCD3/aCD28/PMA; assay type: cell-based; conditions: Homo sapiens, Jurkat, read-out: NF-kB Reporter Assay IC50
Summary of the method: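 Jurkat cells (25,000/well, serum-free RPMI 1640) preincubated 1 hr at 37° C with serially diluted compound, then stimulated with aCD3/aCD28/PMA (final 5 μg/mL, 5 μg/mL, 0.03 μg/mL) for 4 hr. Reporter luminescence read with One-Glo; IC50 derived.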

MALT1 = target: T1, MALT1 (Homo sapiens, UniProt Q9UDY8); assay: MALT-1 Fluorogenic Peptide Cleavage Assay (MALT1 inhibition assay); assay type: biochemical; conditions: Avi-tagged FL MALT-1, Ac-LRSR-AMC peptide substrate, 30 min pre-incubation, 90 min reaction
T1 construct: Avi-tagged FL MALT-1 (Pharmaron, stored at −70° C.); Avi tag
T1 sequence (Q9UDY8 1-824): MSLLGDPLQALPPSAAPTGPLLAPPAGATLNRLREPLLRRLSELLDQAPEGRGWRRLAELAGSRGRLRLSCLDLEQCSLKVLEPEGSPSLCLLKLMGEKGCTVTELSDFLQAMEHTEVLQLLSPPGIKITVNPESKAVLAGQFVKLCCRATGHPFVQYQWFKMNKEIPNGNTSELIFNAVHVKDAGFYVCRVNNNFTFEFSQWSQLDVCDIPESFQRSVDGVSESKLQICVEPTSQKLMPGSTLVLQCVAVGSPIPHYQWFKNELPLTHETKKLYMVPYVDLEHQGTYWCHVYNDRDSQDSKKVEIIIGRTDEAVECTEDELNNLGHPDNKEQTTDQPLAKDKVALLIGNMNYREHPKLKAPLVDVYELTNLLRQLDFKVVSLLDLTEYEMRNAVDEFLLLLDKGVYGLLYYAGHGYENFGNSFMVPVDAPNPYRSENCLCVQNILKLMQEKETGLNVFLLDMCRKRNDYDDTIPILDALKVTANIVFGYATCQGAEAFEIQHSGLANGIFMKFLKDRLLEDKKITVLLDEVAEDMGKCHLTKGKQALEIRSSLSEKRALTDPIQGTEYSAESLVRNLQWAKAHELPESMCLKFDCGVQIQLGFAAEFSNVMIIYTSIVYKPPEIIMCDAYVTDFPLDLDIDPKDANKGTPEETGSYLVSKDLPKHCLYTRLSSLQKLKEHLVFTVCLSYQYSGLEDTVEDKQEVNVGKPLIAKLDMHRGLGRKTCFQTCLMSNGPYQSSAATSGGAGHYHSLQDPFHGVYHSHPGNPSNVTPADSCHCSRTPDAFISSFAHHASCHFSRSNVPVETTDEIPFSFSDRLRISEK
Summary of the method: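 Avi-tagged full-length MALT1 pre-incubated 30 min with compound (2% DMSO final), then cleavage of Ac-LRSR-AMC followed over 90 min at room temperature. AMC fluorescence read at 342/441 nm; % inhibition fitted to sigmoidal curves for IC50.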

[1] = Jurkat cells, 1 hr compound incubation, aCD3/aCD28/PMA stimulation 4 hr, One-Glo readout

Structure (SMILES) | IC50 (NF-kB; [1]) | IC50 (MALT1) | IC50 (NF-kB)
[2H]C([2H])([2H])n1ncc2cnc(OC)c(N(C)S(=O)(=O)c3ccc(-n4cc(C(F)(F)F)cn4)nc3)c21 [Example I-291, N-(6-methoxy-1-(methyl-d3)-1H-pyrazolo[4,3-c]pyridin-7-yl)-N-methyl-6-(4-(trifluoromethyl)-1H-pyrazol-1-yl)pyridine-3-sulfonamide] | < 400 nM | < 400 nM | –
COc1ccc2c(F)nn(C)c2c1NS(=O)(=O)c1ccc(-n2cc(C(F)(F)F)cn2)nc1 [Example I-273, N-(3-fluoro-6-methoxy-1-methyl-1H-indazol-7-yl)-6-(4-(trifluoromethyl)-1H-pyrazol-1-yl)pyridine-3-sulfonamide] | 400 to 1000 nM | < 400 nM | –
COc1ncc2cnn(C)c2c1NS(=O)(=O)c1ccc(-n2cc(C(C)C)cn2)nc1 [Example I-194, 6-(4-isopropyl-1H-pyrazol-1-yl)-N-(6-methoxy-1-methyl-1H-pyrazolo[4,3-c]pyridin-7-yl)pyridine-3-sulfonamide] | < 400 nM | < 400 nM | –
COc1ccc2cnn(C)c2c1NS(=O)(=O)c1ccc(-c2noc(C)n2)nc1 [Example I-161, N-(6-Methoxy-1-Methyl-1H-Indazol-7-yl)-6-(5-Methyl-1,2,4-Oxadiazol-3-yl)Pyridine-3-Sulfonamide] | 400 to 1000 nM | 1000 to 2500 nM | –
Cn1c(-c2ccc(S(=O)(=O)Nc3cccc4cnn(C)c34)cn2)cnc1C(F)(F)F [Example I-234, 6-[3-methyl-2-(trifluoromethyl)imidazol-4-yl]-N-(1-methylindazol-7-yl)pyridine-3-sulfonamide] | – | > 2500 nM | < 400 nM
Cc1ccc2cnn(C)c2c1NS(=O)(=O)c1ccc(-c2cc(C(F)(F)F)n[nH]2)nc1 [Example I-63, N-(1,6-dimethyl-1H-indazol-7-yl)-6-(5-(trifluoromethyl)-1H-pyrazol-3-yl)pyridine-3-sulfonamide] | < 400 nM | < 400 nM | –
Cc1ncc(-c2ccc(S(=O)(=O)Nc3cccc4cnn(C)c34)cn2)n1C(F)(F)F [Example I-271, 6-(2-methyl-1-(trifluoromethyl)-1H-imidazol-5-yl)-N-(1-methyl-1H-indazol-7-yl)pyridine-3-sulfonamide] | – | > 2500 nM | < 400 nM
Cn1ncc2cccc(NS(=O)(=O)c3ccc(N4CC(C)(C)OC4=O)nc3)c21 [Example I-224, 6-(5,5-Dimethyl-2-Oxooxazolidin-3-yl)-N-(1-Methyl-1H-Indazol-7-yl)Pyridine-3-Sulfonamide] | < 400 nM | > 2500 nM | –
COc1ccc2cnn(C)c2c1N(C)S(=O)(=O)c1ccc(-c2cc(C(F)(F)F)n(C)n2)nc1 [Example I-165, N-(6-Methoxy-1-Methyl-1H-Indazol-7-yl)-N-Methyl-6-(1-Methyl-5-(Trifluoromethyl)-1H-Pyrazol-3-yl)Pyridine-3-Sulfonamide] | < 400 nM | < 400 nM | –
CC(C)c1ccn(-c2ccc(S(=O)(=O)N(C)c3cccc4cnn(C)c34)cn2)n1 [Example I-171, 6-(3-isopropyl-1H-pyrazol-1-yl)-N-methyl-N-(1-methyl-1H-indazol-7-yl)pyridine-3-sulfonamide] | < 400 nM | > 2500 nM | –
COc1ccc2cnn(C)c2c1NS(=O)(=O)c1ccc(-c2cnn3c2CN(C)CC3)nc1 [Example I-315] | > 2500 nM | > 2500 nM | –
COc1ccc2cnn(C)c2c1NS(=O)(=O)c1ccc(-c2nc(C(F)(F)F)n[nH]2)nc1 [Example I-167, N-(6-Methoxy-1-Methyl-1H-Indazol-7-yl)-6-(3-(Trifluoromethyl)-1H-1,2,4-Triazol-5-yl)Pyridine-3-Sulfonamide] | > 2500 nM | 1000 to 2500 nM | –
COc1ccc2cnn(C)c2c1NS(=O)(=O)c1ccc(-n2cc(C(C)(C)O)cn2)nc1 [Example I-278, 6-(4-(2-hydroxypropan-2-yl)-1H-pyrazol-1-yl)-N-(6-methoxy-1-methyl-1H-indazol-7-yl)pyridine-3-sulfonamide] | > 2500 nM | > 2500 nM | –
COc1ccc2cnn(C)c2c1NS(=O)(=O)c1ccc(-n2cc(C(C)C)cn2)nc1 [Example I-32, 6-(4-Isopropyl-1H-Pyrazol-1-yl)-N-(6-Methoxy-1-Methyl-1H-Indazol-7-yl)Pyridine-3-Sulfonamide] | < 400 nM | < 400 nM | –
Cn1cc(-c2ccc(S(=O)(=O)Nc3cccc4cnn(C)c34)cn2)cn1 [Example I-107, N-(1-Methyl-1H-Indazol-7-yl)-6-(1-Methyl-1H-Pyrazol-4-yl)Pyridine-3-Sulfonamide] | < 400 nM | > 2500 nM | –
Cn1ncc2cccc(NS(=O)(=O)c3ccc(-c4cnn5c4COCCC5)nc3)c21 [Example I-313] | < 400 nM | > 2500 nM | –
COc1ncc2cnn(C)c2c1NS(=O)(=O)c1ccc(-n2cc(C(F)F)cn2)nc1 [Example I-192, 6-(4-(difluoromethyl)-1H-pyrazol-1-yl)-N-(6-methoxy-1-methyl-1H-pyrazolo[4,3-c]pyridin-7-yl)pyridine-3-sulfonamide] | < 400 nM | < 400 nM | –
Cc1cn(-c2ccc(S(=O)(=O)Nc3cccc4cnn(C)c34)cn2)nn1 [Example I-53, 6-(4-Methyl-1H-1,2,3-Triazol-1-yl)-N-(1-Methyl-1H-Indazol-7-yl)Pyridine-3-Sulfonamide] | 400 to 1000 nM | > 2500 nM | –
COc1ccc2cnn(C)c2c1NS(=O)(=O)c1ccc(-c2nnc(C)n2C)nc1 [Example I-168, 6-(4,5-dimethyl-4H-1,2,4-triazol-3-yl)-N-(6-methoxy-1-methyl-1H-indazol-7-yl)pyridine-3-sulfonamide] | > 2500 nM | > 2500 nM | –
COc1ncc2cnn(C)c2c1NS(=O)(=O)c1ccc(-c2cc(C3CC3)n[nH]2)nc1 [Example I-205, 6-(3-Cyclopropyl-1H-Pyrazol-5-yl)-N-(6-Methoxy-1-Methyl-1H-Pyrazolo[4,3-C]Pyridin-7-yl)Pyridine-3-Sulfonamide] | 1000 to 2500 nM | 1000 to 2500 nM | –
Cn1ncc2cccc(NS(=O)(=O)c3ccc(-c4cnn5c4CCCC5)nc3)c21 [Example I-272, N-(1-methyl-1H-indazol-7-yl)-6-(4,5,6,7-tetrahydropyrazolo[1,5-a]pyridin-3-yl)pyridine-3-sulfonamide] | < 400 nM | > 2500 nM | –
[2H]C([2H])([2H])n1ncc2ccc(OC)c(NS(=O)(=O)c3ccc(-n4cc(C5CC5)cn4)nc3)c21 [Example I-229, 6-(4-Cyclopropyl-1H-Pyrazol-1-yl)-N-(6-Methoxy-1-(Methyl-D3)-1H-Indazol-7-yl)Pyridine-3-Sulfonamide] | < 400 nM | < 400 nM | –
COc1ccc2[nH]nc(C)c2c1NS(=O)(=O)c1ccc(-n2cc(C(F)(F)F)cn2)nc1 [Example I-106, N-(5-Methoxy-3-Methyl-1H-Indazol-4-yl)-6-(4-(Trifluoromethyl)-1H-Pyrazol-1-yl)Pyridine-3-Sulfonamide] | < 400 nM | < 400 nM | –
Cn1ncc2cccc(NS(=O)(=O)c3ccc(-n4cc5c(n4)CCCC5)nc3)c21 [Example I-233, N-(1-methyl-1H-indazol-7-yl)-6-(4,5,6,7-tetrahydro-2H-indazol-2-yl)pyridine-3-sulfonamide] | < 400 nM | 400 to 1000 nM | –
COc1ccc2cnn(C)c2c1NS(=O)(=O)c1ccc(-n2cc(C)cn2)nc1 [Example I-14, N-(6-Methoxy-1-Methyl-1H-Indazol-7-yl)-6-(4-Methyl-1H-Pyrazol-1-yl)Pyridine-3-Sulfonamide] | < 400 nM | < 400 nM | –
CCOC(=O)c1cnn(-c2ccc(S(=O)(=O)Nc3c(OC)ccc4cnn(C)c34)cn2)c1C [Example I-238, ethyl 1-{5-[(6-methoxy-1-methylindazol-7-yl)sulfamoyl]pyridin-2-yl}-5-methylpyrazole-4-carboxylate] | < 400 nM | < 400 nM | –
COc1ccc2cnn(C)c2c1NS(=O)(=O)c1ccc(-c2cc(C(F)(F)F)n(C)n2)nc1 [Example I-49, N-(6-Methoxy-1-Methyl-1H-Indazol-7-yl)-6-(1-Methyl-5-(Trifluoromethyl)-1H-Pyrazol-3-yl)Pyridine-3-Sulfonamide] | < 400 nM | < 400 nM | –

Reference: patent publication US20240150365A1 (Hotspot Therapeutics, Inc., priority 2022, published 2024)
